Reference: patent US20040048837A1, “Method for treatment of renal disease” (priority 2002, published 2004)

Key:
[1] = tested on: patients undergoing chronic hemodialysis; test: Historical cohort study of mortality and survival in chronic hemodialysis patients on intravenous paricalcitol or calcitriol; format: in vivo, human; conditions: for Mortality rate (deaths/person-years): 36-month follow-up after initiation of injectable vitamin D; for Number of deaths: 36-month follow-up, paricalcitol 18,430 person-years, calcitriol 22,057 person-years; for Crude survival at one year / Crude survival at three years / Crude survival at two years: Kaplan-Meier; for Mortality risk according to quintiles of base line PTH / Mortality risk according to quintiles of base line serum calcium: model adjusted for all covariates; for HR (mortality): reference calcitriol
Experimental: An historical cohort study was conducted of patients undergoing chronic hemodialysis in Fresenius Medical Care (FMC) dialysis facilities in the United States. Patients who initiated treatment with either paricalcitol or calcitriol beginning Jan. 1, 1999 or after, and who remained exclusively on that intravenous vitamin D formulation until the conclusion of the follow-up period on Dec. 31, 2001, were included in this study. Patients were excluded if they received any form of intravenous vitamin D prior to Jan. 1, 1999 or if they switched from one injectable vitamin D formulation to another during the study period. Patients treated exclusively with other intravenous vitamin D formulations were not studied because of small sample sizes in those groups.
The FMC data system is an Oracle database populated by the individual clinical data systems employed in each individual FMC dialysis facility. The database contains demographic, laboratory, hospitalization, and mortality information as well as detailed records of the treatments administered during each hemodialysis run since January 1995. All data were collected prospectively as part of routine patient care in over 1000 dialysis facilities throughout the United States. For this study, no additional data were retrospectively abstracted from medical records.
Upon a patient's admission to an FMC facility, demographic information including age, gender, race, date of first dialysis, cause of end stage renal disease, and diabetes status were entered into the system. Subsequently, hemodialysis prescription, laboratory tests, and injectable medications were recorded daily. Centralized labs utilized by all FMC facilities performed laboratory tests using standardized assays. Laboratory test results were automatically downloaded from the centralized laboratory to the FMC data system, minimizing the possibility of data entry errors.
Records of all medicines administered during hemodialysis included date of administration, medication name, dose, and route of administration. This information was collected and uploaded into a central database on a daily basis, and underwent routine quality assessment and control measures because of their link with billing systems. This permitted restriction of the analysis to those who initiated and remained on a single vitamin D formulation during the study period. Whenever a patient missed a hemodialysis treatment, a temporary absence or permanent discharge must be recorded in the system by the facility staff in order to complete the daily reconciliation of prescribed verses administered treatments. Therefore, all patient deaths, including date and cause of death (ICD-9 coded), were recorded in the database by the individual facilities as one type of permanent discharge. In addition, all hospitalizations are recorded as temporary absences, even if no dialysis treatment was missed. Data entered by the individual facilities underwent continuous quality improvement assessment to ensure their accuracy and completeness.
The base line for each individual patient was defined as within a three-month period before starting on paricalcitol or calcitriol. Base line laboratory values were obtained by averaging all values in the three months prior to initiating vitamin D therapy. Quintiles of base line serum calcium and phosphate levels were determined by aggregating values of all patients in the three year time period. Because of known lot-to-lot drifts in parathyroid hormone (PTH) assays, serum levels of PTH were categorized by yearly quintiles, and comparative quintiles across years were combined for the analysis.
Patient “vintage” was determined as the number of days from the initiation of chronic hemodialysis to the first day paricalcitol or calcitriol was administered. This covariate was examined both as a continuous and a categorical variable. […]

cells = conditions: in vitro; compared with paricalcitol; independent of serum calcium, phosphate, PTH; cited from earlier work
patients = conditions: compared with injectable calcitriol (Calcijex); cited from earlier work
[2] = tested on: patients undergoing chronic renal dialysis; conditions: use of paricalcitol; cited from earlier work
uremic rats = conditions: cited from earlier work

C=C1/C(=C\C=C2/CCC[C@]3(C)[C@@H]([C@H](C)CCCC(C)(C)O)CC[C@@H]23)C[C@@H](O)C[C@@H]1O [calcitriol, 1,25 dihydroxycholecalciferol]
Mortality rate (deaths/person-years) [1]: 30.85% | Number of deaths [1]: 6805 deaths | Crude survival at one year [1]: 73.7% | Crude survival at three years [1]: 44.1% | Crude survival at two years [1]: 56.0% | Mortality risk according to quintiles of base line PTH [1]: increased with each successive quintile | Mortality risk according to quintiles of base line serum calcium [1]: increased with each successive quintile | Cell sensitization to injury (cells): sensitizes cells to ATP-depletion and iron-mediated injury

C[C@H](/C=C/[C@H](C)C(C)(C)O)[C@H]1CC[C@H]2/C(=C/C=C3C[C@@H](O)C[C@H](O)C3)CCC[C@]12C [paricalcitol, 19-Nor=−1, 25-(OH)2D2]
Incidence of elevated Ca and/or Ca X P levels (patients): statistically significantly greater | Adverse effects reported [2]: nausea, vomiting, metallic tastes, chills, fever, sepsis, palpitations, dry mouth, gastrointestinal bleeding, edema, light-headedness and pneumonia | Mortality rate (deaths/person-years) [1]: 18.54% | Number of deaths [1]: 3417 deaths | HR (mortality), restricted population, adjusted ([1]; Caucasian diabetic patients, ages 60-70 years, vintage <100 days, arteriovenous prosthetic graft, 95% CI 0.21-0.82): 0.42 | HR (mortality), restricted population, unadjusted ([1]; Caucasian diabetic patients, ages 60-70 years, vintage <100 days, arteriovenous prosthetic graft, 95% CI 0.33-0.85): 0.53 | HR (mortality) ([1]; Cox model Case Mix, Study Entry Period, SMR, Dialysis Access, Base-Line Laboratory Values, N 25,471): 0.73 | HR (mortality) ([1]; Cox model Case Mix, Study Entry Period, SMR, Dialysis Access, N 50,572): 0.70 | HR (mortality) ([1]; Cox model Case Mix, Study Entry Period, SMR, N 50,572): 0.69 | HR (mortality) ([1]; Cox model Case-Mix and Study Entry Period, N 50,572): 0.70 | HR (mortality) ([1]; Cox model Case-Mix, N 50,572): 0.61 | HR (mortality) ([1]; Cox model Unadjusted, N 50,916): 0.58 | Crude survival at one year [1]: 82.6% | Crude survival at three years [1]: 59.3% | Crude survival at two years [1]: 68.6% | Apparent risk (survival) benefit associated with paricalcitol treatment ([1]; after progressive adjustments, vs calcitriol): ~27% | Mortality risk within each quintile of serum phosphorus ([1]; compared with the calcitriol group, adjusted model): comparatively lower | Hazard ratio in the final model (Table 3) ([1]; final model n=25,471, Ref = calcitriol): 0.733 | Risk reduction for each cause of mortality by ICD-9 codes ([1]; infection, neoplasm, cardiovascular, cerebrovascular, other, vs calcitriol, p<0.01): greater than 50% | Mortality risk according to quintiles of base line PTH [1]: significantly lower risk of mortality at all levels of PTH | Mortality risk according to quintiles of base line serum calcium [1]: did not appear to have an increased risk of mortality | Mortality Rate Ratio ([1]; paricalcitol vs calcitriol, 95% CI 0.58-0.63, p<0.01): 0.60 | Survival advantage over calcitriol in stratum ([1]; patients less than 40 years of age at start, event rate 9%): did not demonstrate a significant survival advantage | Hypercalcemia or hyperphosphatemia (uremic rats): without producing significant hypercalcemia or hyperphosphatemia | PTH secretion (uremic rats): suppressed PTH secretion
